Test results taken from patent publication US20260193254A1, “2-OXOQUINAZOLINE CRYSTALLINE FORMS” (IDEAYA Biosciences, Inc., priority 2022, published 2026).
Converted amounts (≈) assume the structure as drawn.

Assays:
[1] = Bulk stability of crystalline forms; type: physicochemical; conditions: for Purity, Bulk (HPLC): Solid state
Source text: (§1) Solids obtained after bulk stability study were characterized by XRPD and HPLC.

[2] = Intrinsic dissolution rate (IDR) evaluation in FaSSIF; type: physicochemical; conditions: FaSSIF at 37° C.
Method: Only one surface of the pellet was exposed (surface area=0.50 cm^2) to 900 mL FaSSIF, the dissolution medium. Temperature of chamber medium was set as 37±0.5° C. Shaft rotation as 100 rpm and sampling time points as 2 min, 5 min, 10 min, 15 min, 20 min, 25 min, 30 min, 35 min, 40 min, 50 min, 60 min, and 120 min. 2 mL sample solution was withdrawn at each time point and centrifuged at 14,000 rpm for 5 min to isolate supernatant. Then concentration of the supernatant was analyzed by HPLC. After 120 min, XRPD of disc surface was measured.

[3] = Behavior under compression; type: physicochemical; conditions: 2 Mpa/2 min, hydraulic press
Method: XRPD characterization was performed to investigate polymorphic behavior under compression.

[4] = Equilibrium solubility in FeSSIF and FaSSIF; type: physicochemical; conditions: 24 hours; for Solubility: target concentration 1 mg/mL, HPLC method 1 or 2 (footnote)
Method: Solid part and liquid part were separated by filtration. Solubility was measured by HPLC. Solid part (wet cake) was investigated by XRPD.

[5] = Bulk stability of crystalline forms; type: physicochemical; parameters: key: Color A: All No change of color; conditions: Solid state
Source text: as §1

[6] = Bulk stability of crystalline forms; type: physicochemical; parameters: key: Color A: All No change of color; Color B: Slightly discoloration; conditions: Solid state, 60° C., tight container, 2 weeks
Source text: as §1

MAT2A enzyme = biological target: T1, MAT2A enzyme (Homo sapiens, UniProt P31153); assay: Phosphate Sensor Fluorescence Assay; type: biochemical; conditions: inhibition of MAT2A enzyme
T1 construct: Human MAT2A: Cepter, amino acids 1-395; purchased Cepter clone ID 329, lot 00023-123; clone ID 334, lot 00023-148
Method: The ability of the compound of Formula (I) described in Example 1 to inhibit MAT2A enzyme was determined using a Phosphate Sensor Fluorescence Assay described below.
MAT2A enzyme is incubated with a test compound in DMSO or DMSO and its substrates (L-methionine and ATP) in a microtiter plate. The enzymatic reaction is stopped by the addition of Working Phosphate Sensor Mixture. The plate is analyzed for fluorescence at 450 nm. The high control (DMSO with enzyme and its substrates) gives high fluorescence which represents no inhibition of enzymatic activity while the low control (DMSO with MAT2A substrates and no enzyme) gives low fluorescence which represents full inhibition of enzymatic activity. […]
For the assay, a mixture of 1 mM L-methionine/1 mM ATP (2× final pre-stopped concentration) in assay buffer; MAT2A (2× final pre-stopped concentration) in Assay Buffer and Working Phosphate Sensor Mixture (1.5 μM Phosphate Sensor/30 mM EDTA in Assay Buffer, which is 3× final concentrations) were prepared. […] The plate was read for fluorescence at 450 nm after exciting at 430 nm.
Percent inhibition was calculated in Chemical and Biological Information System (CBIS), (ChemInnovation Software Inc.). […]

[7] = 25° C./92% RH, open container, 1 week
[8] = 25° C./92% RH, open container, 2 weeks
[9] = 25° C./92% RH, open container, 4 weeks
[10] = 40° C./75% RH, open container, 1 week
[11] = 40° C./75% RH, open container, 2 weeks
[12] = 40° C./75% RH, open container, 4 weeks
[13] = 60° C., tight container, 1 week
[14] = 60° C., tight container, 4 weeks

T1 sequence (P31153 whole entry, the tested form may be a part): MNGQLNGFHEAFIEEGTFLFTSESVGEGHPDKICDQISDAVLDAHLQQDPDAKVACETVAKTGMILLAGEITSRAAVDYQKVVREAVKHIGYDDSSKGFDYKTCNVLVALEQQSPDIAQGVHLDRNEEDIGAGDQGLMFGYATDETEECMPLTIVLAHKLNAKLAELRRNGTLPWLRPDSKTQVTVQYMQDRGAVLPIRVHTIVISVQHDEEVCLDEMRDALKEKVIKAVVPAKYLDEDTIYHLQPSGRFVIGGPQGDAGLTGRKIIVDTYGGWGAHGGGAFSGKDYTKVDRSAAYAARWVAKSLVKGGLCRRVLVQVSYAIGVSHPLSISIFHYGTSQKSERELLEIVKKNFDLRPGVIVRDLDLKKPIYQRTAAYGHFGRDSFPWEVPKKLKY

In the case of `Nc1nc(=O)n(-c2ccccc2Cl)c2nc(C(F)(F)F)ccc12` [substantially amorphous form, 4-Amino-1-(2-chlorophenyl)-7-(trifluoromethyl)pyrido[2,3-d]pyrimidin-2(1H)-one], the “Purity, Bulk (HPLC)” value [1, 7] is reported as 98.5%, the “Purity, Bulk (HPLC)” value [1, 8] is reported as 98.1% and the “Purity, Bulk (HPLC)” value [1, 9] is reported as 97.2%. For the same compound, the “Purity, Bulk (HPLC)” value [1, 10] was 97.5%, the “Purity, Bulk (HPLC)” value [1, 11] was 96.1% and the “Purity, Bulk (HPLC)” value [1, 12] was 93.5%. The “Purity, Bulk (HPLC)” value [1, 13] was 98.4%, the “Purity, Bulk (HPLC)” value ([1]; 60° C., tight container, 2 weeks) was 97.8% and the “Purity, Bulk (HPLC)” value [1, 14] was 97.8%. The “degradation (bulk stability)” value ([1]; after exposure to 40° C./75 RH in an open container and 60° C. in a tight container) was “slight degradation”, the Initial purity ([1]; before stress, HPLC) was 98.7% and the “chemical stability and physical stability (bulk stability)” value ([1]; stressed under 25° C./92 RH, 40% C/75% RH and 60° C., XRPD and HPLC) was “physically stable”. For the same compound, the “XRPD after IDR” value ([2]; disc surface after 120 min) was “No form change”, the “Concentration detected during IDR test (Comments)” value ([2]; for Form V and Form A remains same during the whole process, LOQ for Form T and amorphous form) was “<LOQ (0.0008 mg/mL” and the XRPD after compression [3] was “No form change”. The “final pH” value ([4]; FaSSIF, pH 6.5, 37° C.) was 6.5, the Solubility ([4]; FaSSIF, pH 6.5, 37° C.) was 120 µg/mL (≈ 352 µM) and the “final pH” value ([4]; FeSSIF, pH 5.0, 37° C.) was 5.0. For the same compound, the Solubility ([4]; FeSSIF, pH 5.0, 37° C.) was 230 µg/mL (≈ 675 µM), the Color [5, 7] was “A” and the Color [5, 8] was “A”. For the same compound, the Color [5, 9] was “A”, the Color [5, 10] was “A” and the Color [5, 11] was “A”. The Color [5, 12] was “A”, the Color [5, 13] was “A” and the Color [5, 14] was “A”. For the same compound, the Color [6] was “B”.
For `Nc1nc(=O)n(-c2ccccc2Cl)c2nc(C(F)(F)F)ccc12` [Formula (I), 4-Amino-1-(2-chlorophenyl)-7-(trifluoromethyl)pyrido[2,3-d]pyrimidin-2(1H)-one], the IC50 (MAT2A enzyme) was < 0.2 µM.
